This is an account of results in patent US11773078B2, “Furin inhibitors” (Glaxosmithkline Intellectual Property Development Limited, priority 2018, dated 2023).

Counter-ions that a name gives are not always drawn.

Assay [1] addresses T1, Furin (108-574-Tev-Flag-His) enzyme (Homo sapiens, UniProt P09958).
T1 construct: Furin (108-574-Tev-Flag-His) enzyme was expressed and purified from CHO cells; TEV cleavage site (C); FLAG (C); His (C); made in house; host or cells: CHO cells
The experiment in a line: Furin enzyme assay. Format: biochemical. The settings on record: for IC50: read-out: furin enzyme pIC50 (converted). A digest of the protocol:
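CHO-expressed, purified furin construct at 40 pM in 100 mM HEPES pH7.5, 1 mM CaCl2, 0.005% Triton X-100. Eleven-point 1:3 series, 0.00017–10 μM final, incubated 2 h at room temperature and read on Envision. pXC50 from four-parameter fit.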

Assay [2] addresses T2, furin (endogenous protease) in U20S cells (Homo sapiens, UniProt P09958).
T2 construct: the endogenous protease cleaves GFP; endogenous in cells; host or cells: U2OS cells transduced with a BacMam reporter
Briefly: Furin cell-based assay (image-based, Golgi-targeted GFP with BMP10 furin/PCSK cleavage site).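 Also: Read-out is mean GFP fluorescence of Golgi puncta per cell by high-content imaging, retained when furin inhibited, over an eleven-point 0.00017–10 µM series, four-parameter fit.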 The settings on record: 24-hour incubation, read-out: furin golgi cell pXC50 (converted).

T2 sequence (P09958 108-794): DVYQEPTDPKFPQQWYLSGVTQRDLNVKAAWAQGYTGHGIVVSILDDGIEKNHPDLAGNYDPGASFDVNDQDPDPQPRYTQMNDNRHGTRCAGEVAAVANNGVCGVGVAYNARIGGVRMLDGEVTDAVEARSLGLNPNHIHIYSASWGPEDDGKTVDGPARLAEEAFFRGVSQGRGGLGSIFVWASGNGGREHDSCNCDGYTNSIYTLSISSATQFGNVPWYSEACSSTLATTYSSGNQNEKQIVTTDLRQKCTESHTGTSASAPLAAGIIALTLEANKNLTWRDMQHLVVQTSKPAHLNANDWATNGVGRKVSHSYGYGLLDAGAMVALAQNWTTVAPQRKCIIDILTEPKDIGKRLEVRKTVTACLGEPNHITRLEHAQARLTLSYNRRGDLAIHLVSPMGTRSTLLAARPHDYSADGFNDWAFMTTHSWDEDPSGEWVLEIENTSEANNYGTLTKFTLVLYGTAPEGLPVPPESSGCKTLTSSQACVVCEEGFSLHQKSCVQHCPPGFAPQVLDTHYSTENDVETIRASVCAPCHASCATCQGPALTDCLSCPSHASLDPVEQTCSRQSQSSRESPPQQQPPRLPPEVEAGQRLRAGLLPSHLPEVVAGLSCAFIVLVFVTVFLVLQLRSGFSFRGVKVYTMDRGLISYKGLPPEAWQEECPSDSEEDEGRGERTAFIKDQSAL
T1 sequence (P09958 108-574): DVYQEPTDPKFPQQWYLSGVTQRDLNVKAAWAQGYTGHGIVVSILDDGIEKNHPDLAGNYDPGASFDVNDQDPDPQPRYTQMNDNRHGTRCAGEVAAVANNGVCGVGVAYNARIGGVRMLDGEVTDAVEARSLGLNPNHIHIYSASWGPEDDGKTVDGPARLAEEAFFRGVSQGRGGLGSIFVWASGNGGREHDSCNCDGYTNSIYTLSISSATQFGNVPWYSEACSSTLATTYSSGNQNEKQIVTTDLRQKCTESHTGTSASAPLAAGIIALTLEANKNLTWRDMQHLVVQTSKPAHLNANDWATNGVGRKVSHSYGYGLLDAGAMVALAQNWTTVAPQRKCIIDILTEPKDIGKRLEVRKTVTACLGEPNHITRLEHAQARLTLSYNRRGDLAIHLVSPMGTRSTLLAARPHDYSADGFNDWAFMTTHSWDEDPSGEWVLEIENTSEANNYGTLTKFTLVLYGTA

Consider `CNCc1cc(Oc2ccc(N3CCNCC3)nc2)cc(-c2cc(Cl)cc(Cl)c2)c1` [Example 98, 1-(3′,5′-Dichloro-5-((6-(piperazin-1-yl)pyridin-3-yl)oxy)-[1,1′-biphenyl]-3-yl)-N-methylmethanamine, 3 hydrochloride], for which, in assay [1], the “furin enzyme pIC50” value was found to be 8.7. Also, in assay [2], the EC50 was 39.8 nM.
With `CC(=O)NCC1CCN(Cc2cc(Oc3ccc(N4CCN([C@H]5C[C@H](NS(C)(=O)=O)C5)CC4)nc3)nc(-c3cc(Cl)cc(Cl)c3)c2)CC1` [Example 26, N-((1-((2-(3,5-Dichlorophenyl)-6-((6-(4-((trans)-3-(methylsulfonamido)cyclobutyl)piperazin-1-yl)pyridin-3-yl)oxy)pyridin-4-yl)methyl)piperidin-4-yl)methyl)acetamide], in assay [1], the “furin enzyme pIC50” value is on record as 9.9. In assay [2], the EC50 was 1.58 nM.
In the case of `CC(=O)NCC1CCN(Cc2cc(Oc3ccc(N4CCN(C(C)CCS(C)(=O)=O)CC4)nc3)nc(-c3cc(Cl)cc(Cl)c3)c2)CC1` (stereo not drawn) [Example 16], the “furin enzyme pIC50” value in assay [1] is on record as 9. Further, the EC50 in assay [2] is 1.26 nM.
For `CC(C)N1CCN(c2ncc(Oc3cc(CN4CCC(CC(=O)O)CC4)cc(-c4cc(Cl)cc(Cl)c4)n3)cn2)CC1` [Example 235, 2-(1-((2-(3,5-Dichlorophenyl)-6-((2-(4-isopropylpiperazin-1-yl)pyrimidin-5-yl)oxy)pyridin-4-yl)methyl)piperidin-4-yl)acetic acid], in that order: 9.2 and 15.8 nM.
Regarding `O=C(O)CC1CCN(Cc2cc(Oc3cnc(N4CCNC5(CC5)C4)nc3)nc(-c3cc(Cl)cc(Cl)c3)c2)CC1` [Example 164, 2-(1-((2-((2-(4,7-diazaspiro[2.5]octan-7-yl)pyrimidin-5-yl)oxy)-6-(3,5-dichlorophenyl)pyridin-4-yl)methyl)piperidin-4-yl)acetic acid], the IC50 in assay [1] was 3.98 nM. Also, the EC50 in assay [2] is 25.1 nM.
Take `CC(=O)NCC1CCN(Cc2cc(Oc3cnc(N4CCN(C)CC4)cn3)nc(-c3cc(Cl)cc(Cl)c3)c2)CC1` [Example 110, N-((1-((2-(3,5-Dichlorophenyl)-6-((5-(4-methylpiperazin-1-yl)pyrazin-2-yl)oxy)pyridin-4-yl)methyl)piperidin-4-yl)methyl)acetamide]: the “furin enzyme pIC50” value in assay [1] turned out to be 10.3. In addition, in assay [2], the EC50 was 2.51 nM.
Regarding `CC(=O)NCC1CCN(Cc2cc(Oc3ccc(N4CCNC(C)(C)C4)nc3)nc(-c3cc(Cl)cc(Cl)c3)c2)CC1` [Example 197, N-((1-((2-(3,5-dichlorophenyl)-6-((6-(3,3-dimethylpiperazin-1-yl)pyridin-3-yl)oxy)pyridin-4-yl)methyl)piperidin-4-yl)methyl)acetamide], in assay [1], the “furin enzyme pIC50” value is recorded as 9.2. Besides, the EC50 in assay [2] is 2 nM.
With `CNC(=O)NCC1CCN(Cc2cc(Oc3cnc(N4CCN(C)CC4)nc3)nc(-c3cc(Cl)cc(Cl)c3)c2)CC1` [Example 70, 1-((1-((2-(3,5-dichlorophenyl)-6-((2-(4-methylpiperazin-1-yl)pyrimidin-5-yl)oxy)pyridin-4-yl)methyl)piperidin-4-yl)methyl)-3-methylurea], in assay [1], the IC50 was 0.0316 nM. Moreover, in assay [2], the EC50 was 3.98 nM.
With `O=C(O)CCN1CCN(c2ncc(Oc3cc(CN4CCC(CNC(=O)C5CC5)CC4)cc(-c4cc(Cl)cc(Cl)c4)n3)cn2)CC1` [Example 84, 3-(4-(5-((4-((4-(cyclopropanecarboxamidomethyl)piperidin-1-yl)methyl)-6-(3,5-dichlorophenyl)pyridin-2-yl)oxy)pyrimidin-2-yl)piperazin-1-yl)propanoic acid], in assay [1], the “furin enzyme pIC50” value came out at 9.3. Also, the EC50 in assay [2] was 7.94 nM.
`CC(=O)NCC1CCN(Cc2cc(Oc3ccc(N4CCN(C)CC4)nn3)nc(-c3cc(Cl)cc(Cl)c3)c2)CC1` [Example 157, N-((1-((2-(3,5-dichlorophenyl)-6-((6-(4-methylpiperazin-1-yl)pyridazin-3-yl)oxy)pyridin-4-yl)methyl)piperidin-4-yl)methyl)acetamide]: the “furin enzyme pIC50” value in assay [1] is 10.8. In addition, in assay [2], the EC50 is 1.26 nM.
For the compound `CC(=O)NCC1CCN(Cc2cc(Oc3ccc(N4CC[N+](C)(C)CC4)nc3)nc(-c3cc(Cl)cc(Cl)c3)c2)CC1.[Cl-]` [Example 181, 4-(5-((4-((4-(Acetamidomethyl)piperidin-1-yl)methyl)-6-(3,5-dichlorophenyl)pyridin-2-yl)oxy)pyridin-2-yl)-1,1-dimethylpiperazin-1-ium chloride], in assay [1], the “furin enzyme pIC50” value came out at 9. Besides, the EC50 in assay [2] was 79.4 nM.
Take `CN1CCN(c2ncc(Oc3cc(CN4CCC(CCC(=O)O)CC4)cc(-c4cc(Cl)cc(Cl)c4)n3)cn2)CC1` [Example 130, 3-(1-((2-(3,5-dichlorophenyl)-6-((2-(4-methylpiperazin-1-yl)pyrimidin-5-yl)oxy)pyridin-4-yl)methyl)piperidin-4-yl)propanoic acid]: the “furin enzyme pIC50” value in assay [1] turned out to be 8.7. In assay [2], the EC50 is 7.94 nM.
For `O=C(O)CC1CCN(Cc2cc(Oc3cnc(N4CCN(CCF)CC4)nc3)nc(-c3cc(Cl)cc(Cl)c3)c2)CC1` [Example 236, 2-(1-((2-(3,5-Dichlorophenyl)-6-((2-(4-(2-fluoroethyl)piperazin-1-yl)pyrimidin-5-yl)oxy)pyridin-4-yl)methyl)piperidin-4-yl)acetic acid] the same measures were 8.5 and 39.8 nM.
For `CC(C)(O)CCN1CCN(c2ncc(Oc3cc(CN4CCC(CC(=O)O)CC4)cc(-c4cc(Cl)cc(Cl)c4)n3)cn2)CC1` [Example 279, 2-(1-((2-(3,5-dichlorophenyl)-6-((2-(4-(3-hydroxy-3-methylbutyl)piperazin-1-yl)pyrimidin-5-yl)oxy)pyridin-4-yl)methyl)piperidin-4-yl)acetic acid] the same measures were 8.6 and 20 nM.
For `CN1CC2CN(c3ncc(Oc4cc(CN5CCC(CC(=O)O)CC5)cc(-c5cc(Cl)cc(Cl)c5)n4)cn3)CC2C1` (stereo not drawn) [Example 133, 2-(1-((2-(3,5-dichlorophenyl)-6-((2-(5-methylhexahydropyrrolo[3,4-c]pyrrol-2(1H)-yl)pyrimidin-5-yl)oxy)pyridin-4-yl)methyl)piperidin-4-yl)acetic acid] the same measures were 8.3 and 39.8 nM.
For `CNCc1cc(Oc2ccc(N3CC4CNCC4C3)nc2)cc(-c2cc(Cl)cc(Cl)c2)c1` (stereo not drawn) [Example 201, 1-(3′,5′-dichloro-5-((6-(hexahydropyrrolo[3,4-c]pyrrol-2(1H)-yl)pyridin-3-yl)oxy)-[1,1′-biphenyl]-3-yl)-N-methylmethanamine], the “furin enzyme pIC50” value in assay [1] was found to be 9.4. Moreover, the EC50 in assay [2] is 20 nM.
For `CC(=O)NCC1CCN(Cc2cc(Oc3cnc(N4CCN(C(C)CC(N)=O)CC4)nc3)nc(-c3cc(Cl)cc(Cl)c3)c2)CC1` (stereo not drawn) [Example 95, 3-(4-(5-((4-((4-(Acetamidomethyl)piperidin-1-yl)methyl)-6-(3,5-dichlorophenyl)pyridin-2-yl)oxy)pyrimidin-2-yl)piperazin-1-yl)butanamide, 4 hydrochloride], the “furin enzyme pIC50” value in assay [1] is 9.9. Besides, the EC50 in assay [2] was 1.58 nM.
For the compound `CS(=O)(=O)CCC1CCN(Cc2cc(Oc3ccc(N4CCN(CCC(=O)O)CC4)nc3)nc(-c3cc(Cl)cc(Cl)c3)c2)CC1` [Example 276, 3-(4-(5-((6-(3,5-dichlorophenyl)-4-((4-(2-(methylsulfonyl)ethyl)piperidin-1-yl)methyl)pyridin-2-yl)oxy)pyridin-2-yl)piperazin-1-yl)propanoic acid], the “furin enzyme pIC50” value in assay [1] is listed as 9. The EC50 in assay [2] was 50.1 nM.
